Measurements from ChEMBL document CHEMBL2375342, “Novel 5-(benzyloxy)pyridin-2(1H)-one derivatives as potent c-Met inhibitors” (Bioorg Med Chem Lett, 2013).
pIC50: −log10 of the molar value. Values belong to the compound of their own block, whether it stands above or below them. The source made the active and inactive calls. No cut-off for these calls is given here.

How the values were obtained:
[1] = Antiproliferative activity in human EBC1 cells overexpressing c-MET after 72 hrs by sulforhodamine B assay; assay type: functional, cell-based; settings: EBC-1, 72 h
[2] = target: T1, Hepatocyte growth factor receptor (Homo sapiens, UniProt P08581); assay: Inhibition of c-MET (unknown origin) at 10 uM after 60 mins by ELISA relative to control
T1 sequence (P08581 whole entry): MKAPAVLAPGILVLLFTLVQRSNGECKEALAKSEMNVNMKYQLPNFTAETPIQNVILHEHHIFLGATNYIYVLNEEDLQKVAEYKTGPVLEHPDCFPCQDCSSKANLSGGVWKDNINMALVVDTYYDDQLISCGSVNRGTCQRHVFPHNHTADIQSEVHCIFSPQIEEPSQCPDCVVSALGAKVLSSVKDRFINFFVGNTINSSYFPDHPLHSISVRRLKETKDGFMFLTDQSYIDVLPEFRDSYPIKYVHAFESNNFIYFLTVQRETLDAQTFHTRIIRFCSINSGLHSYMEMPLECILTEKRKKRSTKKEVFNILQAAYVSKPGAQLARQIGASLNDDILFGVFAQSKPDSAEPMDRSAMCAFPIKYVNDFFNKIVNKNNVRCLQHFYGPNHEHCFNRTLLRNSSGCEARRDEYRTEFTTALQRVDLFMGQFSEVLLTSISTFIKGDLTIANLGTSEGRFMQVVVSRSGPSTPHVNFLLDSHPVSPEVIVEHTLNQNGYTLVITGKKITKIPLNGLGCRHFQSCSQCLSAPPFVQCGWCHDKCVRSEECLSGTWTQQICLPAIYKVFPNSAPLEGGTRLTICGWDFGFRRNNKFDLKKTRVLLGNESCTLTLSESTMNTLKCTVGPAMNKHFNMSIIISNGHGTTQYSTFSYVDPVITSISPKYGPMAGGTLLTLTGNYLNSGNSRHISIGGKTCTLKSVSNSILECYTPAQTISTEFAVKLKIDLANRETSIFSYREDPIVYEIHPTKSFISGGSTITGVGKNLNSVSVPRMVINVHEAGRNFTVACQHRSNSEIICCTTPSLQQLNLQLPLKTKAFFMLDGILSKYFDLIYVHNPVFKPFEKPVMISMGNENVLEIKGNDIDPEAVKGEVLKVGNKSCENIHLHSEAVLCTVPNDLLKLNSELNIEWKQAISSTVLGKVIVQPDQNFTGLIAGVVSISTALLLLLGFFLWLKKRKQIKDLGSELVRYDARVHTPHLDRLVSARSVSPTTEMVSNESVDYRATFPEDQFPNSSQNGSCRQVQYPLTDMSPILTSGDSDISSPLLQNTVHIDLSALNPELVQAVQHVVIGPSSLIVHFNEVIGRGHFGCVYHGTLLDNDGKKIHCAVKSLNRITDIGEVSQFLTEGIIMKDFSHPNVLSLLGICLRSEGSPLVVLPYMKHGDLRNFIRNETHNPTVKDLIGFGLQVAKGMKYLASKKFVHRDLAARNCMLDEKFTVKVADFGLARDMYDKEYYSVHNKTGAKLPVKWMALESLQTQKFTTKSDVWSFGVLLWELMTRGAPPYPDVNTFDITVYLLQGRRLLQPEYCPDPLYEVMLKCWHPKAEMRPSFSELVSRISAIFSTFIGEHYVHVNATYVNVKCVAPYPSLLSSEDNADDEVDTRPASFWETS

[3] = target: Receptor tyrosine-protein kinase erbB-2 (Homo sapiens, UniProt P04626); assay: Inhibition of ERBB2 (unknown origin)
[4] = target: Tyrosine-protein kinase ABL1 (Homo sapiens, UniProt P00519); assay: Inhibition of ABL (unknown origin)
Sequence of Tyrosine-protein kinase ABL1 (P00519 whole entry): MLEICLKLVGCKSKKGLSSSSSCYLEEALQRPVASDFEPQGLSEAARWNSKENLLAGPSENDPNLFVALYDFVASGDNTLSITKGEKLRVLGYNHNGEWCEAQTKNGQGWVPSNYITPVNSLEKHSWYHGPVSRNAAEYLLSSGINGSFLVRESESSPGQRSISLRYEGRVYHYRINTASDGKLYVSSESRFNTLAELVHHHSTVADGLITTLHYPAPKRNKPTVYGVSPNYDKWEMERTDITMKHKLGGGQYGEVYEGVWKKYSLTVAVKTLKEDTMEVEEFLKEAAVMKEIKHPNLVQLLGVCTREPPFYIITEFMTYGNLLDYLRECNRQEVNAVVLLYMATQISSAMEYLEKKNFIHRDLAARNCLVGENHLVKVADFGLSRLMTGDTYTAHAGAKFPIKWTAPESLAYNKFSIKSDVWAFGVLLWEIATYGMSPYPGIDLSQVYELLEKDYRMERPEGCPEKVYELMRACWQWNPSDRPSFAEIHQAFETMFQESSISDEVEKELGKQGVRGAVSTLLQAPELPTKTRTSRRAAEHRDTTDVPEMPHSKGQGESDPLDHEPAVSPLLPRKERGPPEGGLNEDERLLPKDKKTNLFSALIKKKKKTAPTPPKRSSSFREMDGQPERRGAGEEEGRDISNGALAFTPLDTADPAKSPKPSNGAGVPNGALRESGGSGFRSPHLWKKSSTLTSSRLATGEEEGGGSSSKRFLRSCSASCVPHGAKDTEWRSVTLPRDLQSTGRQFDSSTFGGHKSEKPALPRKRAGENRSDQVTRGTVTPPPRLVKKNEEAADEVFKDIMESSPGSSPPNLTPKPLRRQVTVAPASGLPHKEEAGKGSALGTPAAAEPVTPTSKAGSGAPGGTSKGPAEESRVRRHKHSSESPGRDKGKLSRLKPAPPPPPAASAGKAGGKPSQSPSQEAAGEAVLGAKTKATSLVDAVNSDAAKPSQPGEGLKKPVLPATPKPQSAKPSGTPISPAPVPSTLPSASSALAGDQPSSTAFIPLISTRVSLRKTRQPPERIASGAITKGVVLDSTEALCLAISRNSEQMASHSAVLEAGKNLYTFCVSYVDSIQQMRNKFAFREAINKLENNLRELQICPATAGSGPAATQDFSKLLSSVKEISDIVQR

[5] = target: T2, Tyrosine-protein kinase receptor TYRO3 (Homo sapiens, UniProt Q06418); assay: Inhibition of TYRO3 (unknown origin)
T2 sequence (Q06418 whole entry): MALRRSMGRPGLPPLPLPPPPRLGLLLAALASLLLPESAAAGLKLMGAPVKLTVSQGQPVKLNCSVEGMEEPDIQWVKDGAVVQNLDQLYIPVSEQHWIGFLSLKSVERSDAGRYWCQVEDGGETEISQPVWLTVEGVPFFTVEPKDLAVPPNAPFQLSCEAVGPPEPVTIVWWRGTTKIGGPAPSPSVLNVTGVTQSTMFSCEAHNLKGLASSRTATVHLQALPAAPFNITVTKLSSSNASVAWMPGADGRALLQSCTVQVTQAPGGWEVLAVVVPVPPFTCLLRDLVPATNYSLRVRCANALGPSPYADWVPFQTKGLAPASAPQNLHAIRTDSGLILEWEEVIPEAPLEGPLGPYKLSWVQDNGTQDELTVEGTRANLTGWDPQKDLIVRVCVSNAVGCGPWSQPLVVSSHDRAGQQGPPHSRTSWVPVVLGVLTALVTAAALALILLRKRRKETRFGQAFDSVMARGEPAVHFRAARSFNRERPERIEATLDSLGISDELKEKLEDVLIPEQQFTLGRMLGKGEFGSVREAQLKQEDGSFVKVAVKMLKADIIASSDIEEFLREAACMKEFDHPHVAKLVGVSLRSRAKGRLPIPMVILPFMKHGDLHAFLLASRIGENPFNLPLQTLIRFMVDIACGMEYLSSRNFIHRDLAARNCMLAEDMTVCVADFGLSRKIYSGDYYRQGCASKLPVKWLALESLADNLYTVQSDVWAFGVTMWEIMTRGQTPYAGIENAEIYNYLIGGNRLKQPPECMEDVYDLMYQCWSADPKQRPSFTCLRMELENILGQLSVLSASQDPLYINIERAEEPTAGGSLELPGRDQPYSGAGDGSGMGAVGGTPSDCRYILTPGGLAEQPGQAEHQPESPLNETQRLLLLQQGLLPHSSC

[6] = target: Receptor tyrosine-protein kinase erbB-4 (Homo sapiens, UniProt Q15303); assay: Inhibition of ERBB4 (unknown origin)
[7] = target: Vascular endothelial growth factor receptor 2 (Homo sapiens, UniProt P35968); assay: Inhibition of KDR (unknown origin)
Sequence of Vascular endothelial growth factor receptor 2 (P35968 whole entry): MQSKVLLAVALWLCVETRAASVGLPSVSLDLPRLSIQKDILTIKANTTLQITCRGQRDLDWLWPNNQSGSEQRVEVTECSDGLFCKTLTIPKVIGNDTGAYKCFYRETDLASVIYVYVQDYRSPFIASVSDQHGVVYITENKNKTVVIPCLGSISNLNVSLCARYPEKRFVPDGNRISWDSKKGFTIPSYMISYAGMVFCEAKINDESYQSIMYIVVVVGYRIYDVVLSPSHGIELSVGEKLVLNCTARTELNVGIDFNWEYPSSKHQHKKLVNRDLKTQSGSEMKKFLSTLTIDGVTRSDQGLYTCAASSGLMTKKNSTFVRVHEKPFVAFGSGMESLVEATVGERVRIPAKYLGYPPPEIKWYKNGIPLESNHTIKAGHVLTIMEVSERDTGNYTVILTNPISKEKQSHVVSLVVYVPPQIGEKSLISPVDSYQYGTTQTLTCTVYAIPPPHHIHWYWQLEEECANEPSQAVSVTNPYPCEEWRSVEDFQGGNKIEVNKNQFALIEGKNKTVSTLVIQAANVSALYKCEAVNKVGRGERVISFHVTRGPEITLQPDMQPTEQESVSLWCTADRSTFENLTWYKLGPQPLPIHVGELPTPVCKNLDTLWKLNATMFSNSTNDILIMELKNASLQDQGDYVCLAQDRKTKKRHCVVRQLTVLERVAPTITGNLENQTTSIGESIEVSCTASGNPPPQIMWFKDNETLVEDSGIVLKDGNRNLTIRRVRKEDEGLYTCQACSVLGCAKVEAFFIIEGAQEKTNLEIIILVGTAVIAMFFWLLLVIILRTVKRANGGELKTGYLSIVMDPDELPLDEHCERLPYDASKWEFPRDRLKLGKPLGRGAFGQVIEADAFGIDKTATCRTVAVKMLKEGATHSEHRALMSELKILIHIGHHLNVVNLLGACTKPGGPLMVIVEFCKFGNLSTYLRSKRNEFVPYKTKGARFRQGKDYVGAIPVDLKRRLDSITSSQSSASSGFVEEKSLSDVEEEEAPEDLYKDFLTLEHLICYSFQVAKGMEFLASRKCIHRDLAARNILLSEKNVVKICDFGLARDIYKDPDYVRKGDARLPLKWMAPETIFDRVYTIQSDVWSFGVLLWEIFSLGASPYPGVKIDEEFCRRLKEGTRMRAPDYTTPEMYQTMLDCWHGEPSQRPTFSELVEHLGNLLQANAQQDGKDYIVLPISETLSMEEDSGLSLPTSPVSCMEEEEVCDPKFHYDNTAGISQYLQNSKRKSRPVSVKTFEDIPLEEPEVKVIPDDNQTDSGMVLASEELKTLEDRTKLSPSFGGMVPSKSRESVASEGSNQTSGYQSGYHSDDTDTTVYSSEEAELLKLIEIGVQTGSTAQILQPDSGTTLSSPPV

[8] = target: Fibroblast growth factor receptor 1 (Homo sapiens, UniProt P11362); assay: Inhibition of FGFR1 (unknown origin)
[9] = target: Epidermal growth factor receptor (Homo sapiens, UniProt P00533); assay: Inhibition of EGFR (unknown origin)
[10] = target: Epidermal growth factor receptor (Homo sapiens, UniProt P00533, L858R/T790M); assay: Inhibition of EGFR T790M/L858R double mutant (unknown origin); assay type: protein assay
[11] = target: T1, Hepatocyte growth factor receptor; assay: Inhibition of c-MET (unknown origin) after 60 mins by ELISA
[12] = target: Vascular endothelial growth factor receptor 1 (Homo sapiens, UniProt P17948); assay: Inhibition of FLT1 (unknown origin)
[13] = target: Proto-oncogene tyrosine-protein kinase receptor Ret (Homo sapiens, UniProt P07949); assay: Inhibition of RET (unknown origin)
[14] = target: Macrophage-stimulating protein receptor (Homo sapiens, UniProt Q04912); assay: Inhibition of RON (unknown origin)
[15] = target: Platelet-derived growth factor receptor alpha (Homo sapiens, UniProt P16234); assay: Inhibition of PDGFRalpha (unknown origin)
Sequence of Platelet-derived growth factor receptor alpha (P16234 whole entry): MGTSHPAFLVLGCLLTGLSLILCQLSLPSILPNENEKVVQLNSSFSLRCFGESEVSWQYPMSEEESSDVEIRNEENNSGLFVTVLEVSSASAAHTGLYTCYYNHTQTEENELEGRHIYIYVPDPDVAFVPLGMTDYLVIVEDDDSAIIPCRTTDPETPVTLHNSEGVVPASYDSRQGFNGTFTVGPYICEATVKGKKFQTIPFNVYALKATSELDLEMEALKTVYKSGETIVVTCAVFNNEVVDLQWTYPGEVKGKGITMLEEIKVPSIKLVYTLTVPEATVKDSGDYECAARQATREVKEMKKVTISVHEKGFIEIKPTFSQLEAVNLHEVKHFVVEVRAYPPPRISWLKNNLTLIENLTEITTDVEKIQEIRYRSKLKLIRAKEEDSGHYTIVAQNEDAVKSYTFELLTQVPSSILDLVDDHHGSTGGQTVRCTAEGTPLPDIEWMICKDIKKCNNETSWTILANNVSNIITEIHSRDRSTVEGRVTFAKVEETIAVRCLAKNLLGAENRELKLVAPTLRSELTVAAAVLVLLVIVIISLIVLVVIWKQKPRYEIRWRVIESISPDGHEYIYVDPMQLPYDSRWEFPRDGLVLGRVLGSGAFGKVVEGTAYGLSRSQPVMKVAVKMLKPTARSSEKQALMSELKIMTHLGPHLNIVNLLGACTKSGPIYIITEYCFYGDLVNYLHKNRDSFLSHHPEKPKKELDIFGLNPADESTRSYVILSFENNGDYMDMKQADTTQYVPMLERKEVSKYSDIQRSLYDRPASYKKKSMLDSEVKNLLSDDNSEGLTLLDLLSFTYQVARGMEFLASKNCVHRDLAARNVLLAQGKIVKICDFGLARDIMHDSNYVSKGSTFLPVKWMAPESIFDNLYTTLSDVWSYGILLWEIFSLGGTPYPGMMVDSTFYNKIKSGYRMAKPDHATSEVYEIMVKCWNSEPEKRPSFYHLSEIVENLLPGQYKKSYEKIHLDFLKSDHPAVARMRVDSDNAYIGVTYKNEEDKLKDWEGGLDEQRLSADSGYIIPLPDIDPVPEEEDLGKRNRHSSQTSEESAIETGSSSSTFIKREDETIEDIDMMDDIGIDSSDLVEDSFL

[16] = target: T1, Hepatocyte growth factor receptor; assay: Inhibition of c-MET (unknown origin) at 1 uM after 60 mins by ELISA
[17] = target: T1, Hepatocyte growth factor receptor; assay: Inhibition of c-MET (unknown origin)

SMILES: C[C@@H](Oc1c[nH]c(=O)c(C(=O)Nc2ccc(N3CCN(C)CC3)nc2)c1)c1c(Cl)ccc(F)c1Cl
pIC50 [1]: 5.41

SMILES: C[C@@H](Oc1c[nH]c(=O)c(C(=O)Nc2ccc(OCCN3CCOCC3)cc2)c1)c1c(Cl)ccc(F)c1Cl
pIC50 [1]: 5.23

SMILES: C[C@@H](Oc1c[nH]c(=O)c(C(=O)Nc2ccc(CN3CCN(C)CC3)cc2)c1)c1c(Cl)ccc(F)c1Cl
pIC50 [1]: 5.96

SMILES: C[C@@H](Oc1c[nH]c(=O)c(C(=O)Nc2cnn(C)c2)c1)c1c(Cl)ccc(F)c1Cl
pIC50 [1]: 5.01

SMILES: C[C@@H](Oc1c[nH]c(=O)c(C(=O)Nc2ccc3c(c2)CN(CCN(C)C)C3=O)c1)c1c(Cl)ccc(F)c1Cl
pIC50 [1]: 5.59

SMILES: C[C@@H](Oc1c[nH]c(=O)c(C(=O)Nc2cnn(C3CCNCC3)c2)c1)c1c(Cl)ccc(F)c1Cl
pIC50 [1]: 6.00

SMILES: C[C@@H](Oc1c[nH]c(=O)c(C(=O)NCc2ccc(NS(C)(=O)=O)cc2)c1)c1c(Cl)ccc(F)c1Cl
inhibition [2]: < 50%

SMILES: C[C@@H](Oc1c[nH]c(=O)c(C(=O)Nc2cnn(CCO)c2)c1)c1c(Cl)ccc(F)c1Cl
pIC50 [1]: 5.96

More lines, main results first:

inhibition [2]: < 50%
SMILES: C[C@@H](Oc1c[nH]c(=O)c(C(=O)NC2CCN(C)CC2)c1)c1c(Cl)ccc(F)c1Cl

pIC50 [3]: < 6.00
pIC50 [4]: 6.55
pIC50 [5]: < 6.00
pIC50 [6]: < 6.00
pIC50 [7]: < 6.00
pIC50 [8]: < 6.00
pIC50 [9]: < 6.00
pIC50 [10]: < 6.00
pIC50 [11]: 7.92
pIC50 [12]: < 6.00
pIC50 [13]: < 6.00
pIC50 [14]: 6.35
pIC50 [15]: < 6.00
SMILES: C[C@@H](Oc1c[nH]c(=O)c(C(=O)Nc2ccc(N3CCN(C)CC3)cc2)c1)c1c(Cl)ccc(F)c1Cl
pIC50 [1]: 5.66

inhibition [16]: inactive
SMILES: CCN1CCN(c2ccc(NC(=O)c3cc(O[C@H](C)c4c(Cl)ccc(F)c4Cl)c[nH]c3=O)c(OC)c2)CC1

pIC50 [17]: 9.16
SMILES: C[C@@H](Oc1cc(C(=O)Nc2ccc(C(=O)N3CCN(C)CC3)cc2)nnc1N)c1c(Cl)ccc(F)c1Cl

inhibition [2]: < 50%
SMILES: C[C@@H](Oc1c[nH]c(=O)c(C(=O)NCc2ccc(N3CCOCC3)cc2)c1)c1c(Cl)ccc(F)c1Cl

inhibition [16]: inactive
SMILES: COc1ncc(O[C@H](C)c2c(Cl)ccc(F)c2Cl)cc1C(=O)Nc1ccc(N2CCN(C)CC2)cc1
